Read-outs that look alike come from different tables or passages of the source.

Data set [1] can be described thus: Assay I: SNAC solubility in combination with selected hydrotropes. Conditions: for Fold increase in solubility: SNAC solubility relative to SNAC control (no hydrotrope), hydrotrope 200 mg/mL, pH 6; for SNAC concentration: hydrotrope 200 mg/mL in ultrapure water, pH 6, 200 mg SNAC added, 4 hours at room temperature, RP-HPLC.
The conditions of data set [2]: pH 6.
For data set [3] the following is noted: pH 6. The source holds these as a separate data set.

With `CCN(CC)C(=O)c1cccnc1` [N,N diethyl nicotinamide], in data set [1], the “Fold increase in solubility” value worked out at 7.8 fold and the SNAC concentration turned out to be 4.58 mg/mL. The matching figures for `NC(N)=O` [Urea]: 1.3 fold and 0.77 mg/mL.

On to `NC(=O)c1cccnc1` [Nicotinamide], for which the “effect on SNAC solubility (FIG. 1)” value in data set [2] is “dose dependent effect”. Take `O=C(O[C@@H]1Cc2c(O)cc(O)cc2O[C@@H]1c1cc(O)c(O)c(O)c1)c1cc(O)c(O)c(O)c1` [Epigallocatechin gallate]: in data set [1], the “Fold increase in solubility” value worked out at 9.6 fold and the SNAC concentration is 5.66 mg/mL.

`O=C([O-])c1ccccc1O.[Na+]` [Sodium salicylate]: in data set [3], the “Fold increase in solubility” value came to 2.7 fold and the SNAC concentration is 1.59 mg/mL. Consider `CN(C)C(=O)c1ccccc1` [N,N dimethyl benzamide], for which, in data set [1], the “Fold increase in solubility” value stood at 38 fold and the SNAC concentration was 22.46 mg/mL.

The record behind these values is patent US12616738B2, “Solid compositions comprising a GLP-1 agonist and a salt of N-(8-(2-hydroxybenzoyl)amino)caprylic acid” (Novo Nordisk A/S, priority 2018, dated 2026).
